Results reported in US20230355613A1, “METHODS FOR TREATING PANCREATIC DUCTAL ADENOCARCINOMA” (HEALTH RESEARCH, INC., priority 2022, published 2023).

Key:
xenograft models = xenograft models in vivo; cited from earlier work
Panc1 cells [1] = assay: RNA-seq of JTE-607 treated cells (APA, read-through, differential expression analysis); type: cell-based, human; conditions: Panc1, H3F3A and H2AZ1 normalized counts
Excerpt: mRNA regulation is distinct between knockdown and chemical inhibition of CPSF3. Because JTE-607 inhibits CPSF3 catalytic activity without inducing target degradation, it was sought to understand if the function of CPSF3 is distinct between knockdown and inhibition. As CPSF3 is an integral component of the polyadenylation complex and the histone cleavage complex (HCC), it was hypothesized that CPSF3 disruption would dysregulate both alternative polyadenylation (APA) and histone mRNA processing. To test this hypothesis, CPSF3 knockdown and JTE-607 treated Panc1 cells were subjected to RNA-sequencing (RNA-seq). […] In the CPSF3 knockdown cells, PolyAMiner-Bulk detected 85 significant DAGs, of which 43 genes underwent 3′UTR lengthening (PolyAIndex>0.5; Padj<0.05) and 42 genes underwent 3′UTR shortening (PolyAIndex <−0.5; Padj<0.05) (FIG. 3A). In the CPSF3 inhibition model, PolyAMiner-Bulk detected 174 significant DAGs, of which 138 underwent 3′UTR lengthening (PolyAIndex>0.5; Padj<0.05) and 36 genes underwent 3′UTR shortening (PolyAIndex <−0.5; Padj<0.05) (FIG. 3B). […]
JTE-607 inhibits expression of replication-dependent histones. JTE-607 induces global transcriptional read-through in Ewing's sarcoma cells. Therefore, it was asked whether JTE-607 would similarly induce global read-through in PDAC cells by applying the ARTDeco algorithm. […]

Panc1 cells [2] = assay: Cell proliferation time course (CellTiter-Glo, days 0, 2, 4, 6); type: cell-based, human; conditions: increasing concentrations, days 0-6, dose-dependent
Excerpt: (§1) PDAC cells are sensitive to chemical inhibition of CPSF3. CPSF3 was recently identified as the target for the small molecule JTE-607. JTE-607 is a prodrug that, when metabolized by the ester hydrolyzing enzyme carboxylesterase 1 (CES1), binds to CPSF3 and inhibits its catalytic activity, impairing the processing of newly synthesized mRNAs. As genetic depletion of CPSF3 attenuated PDAC cell proliferation (FIG. 1), it 2as hypothesized that pharmacologic inhibition of CPSF3 with JTE-607 could represent a novel therapeutic approach in PDAC. The sensitivity of multiple human pancreatic cell lines, both non-transformed and PDAC, to JTE-607 in a 72-hour dose-response cell viability assay was examined. […] To examine if sensitivity to CPSF3 inhibition was associated with proliferation rate, the relationship between cell line doubling time and JTE-607 sensitivity was assessed. […] Next, the effect of JTE-607 on cell proliferation by treating cells with increasing concentrations of JTE-607 and assessing cell viability in a time-dependent fashion (FIGS. 2C-2E) was determined. […] Finally, the effect of JTE-607 on colony formation in PDAC cell lines was tested. […] Therefore, JTE-607 selectively attenuates proliferation of PDAC cells over non-transformed pancreatic cells.
(§2) JTE-607 studies. For dose-response measurements, cells were seeded at a density of 1000 cells per well in a 96-well white plate. The next day, JTE-607 was titrated over a range of concentrations using the Tecan D300e Digital Dispenser and cell viability was measured 72 hours post drug titration using a CellTiter-Glo Luminescent Cell Viability Assay Kit (Promega). For cell proliferation experiments, cells were seeded at a density of 250 cells per well in a 96-well white plate. DMSO control or JTE-607 was dispensed at varying concentrations and proliferation was measured using CellTiter-Glo Assay at days 0, 2, 4 and 6. For clonogenicity experiments, cells were seeded at a concentration of 500 cells per well and treated with different concentrations of JTE-607. […] Colony area was measured using ImageJ software. […]

MiaPaCa2 cells = assay: as above; type: cell-based, human; conditions: increasing concentrations, days 0-6, dose-dependent
Excerpt: as §1, §2

HPNE cells = assay: as above; type: cell-based, human; conditions: increasing concentrations, days 0-6
Excerpt: as §1, §2

CCOC(=O)[C@H](Cc1ccccc1)NC(=O)c1cc(Cl)c(OCCN2CCN(C)CC2)c(Cl)c1O [JTE-607]
survival of tumor-bearing mice (xenograft models): prolongs survival
expression of RI histones (Panc1 cells [1]): not downregulated
effect on proliferation (Panc1 cells [2]): significantly attenuated
effect on proliferation (MiaPaCa2 cells): significantly attenuated
effect on proliferation (HPNE cells): no effect on proliferation
